Assay results: patent US20120053168A1, “FUSED BENZOAZEPINES AS NEURONAL NICOTINIC ACETYLCHOLINE RECEPTOR LIGANDS” (Targacept, Inc., priority 2009, published 2012)

Key:
Human α4β2 nAChR subtype = target: T1, Human α4β2 nAChR subtype (Homo sapiens, UniProt P17787+P43681); assay: [3H]nicotine radioligand binding, membranes from SH-EP1/human α4β2 clonal cells
T1 construct: expressed in transfected cells; host or cells: SH-EP1 clonal cells
Method: Preparation of membranes from SH-EP1/human α4β2 clonal cells:
Cell pellets from 40 150 mm culture dishes were pooled, and homogenized by Polytron (Kinematica GmbH, Switzerland) in 20 milliliters of ice-cold preparative buffer. The homogenate was centrifuged at 48,000 g for 20 minutes at 4° C. The resulting pellet was re-suspended in 20 mL of ice-cold preparative buffer and stored at ˜20° C.
On the day of the assay, the frozen membranes were thawed and spun at 48,000×g for 20 min. The supernatant was decanted and discarded. The pellet was resuspended in Dulbecco's phosphate buffered saline (PBS, Life Technologies) pH 7.4 and homogenized with the Polytron for 6 seconds. Protein concentrations were determined using a Pierce BCA Protein Assay Kit, with bovine serum albumin as the standard (Pierce Chemical Company, Rockford, Ill.).
Assay: Membrane preparations (approximately 50 μg for human and 200-300 μg protein for rat α4β2) were incubated in PBS (50 μL and 100 μL respectively) in the presence of competitor compound (0.01 nM to 100 μM) and 5 nM [^3H]nicotine for 2-3 hours on ice. Incubation was terminated by rapid filtration on a multi-manifold tissue harvester (Brandel, Gaithersburg, Md.) using GF/B filters presoaked in 0.33% polyethyleneimine (w/v) to reduce non-specific binding. Tissue was rinsed 3 times in PBS, pH 7.4. Scintillation fluid was added to filters containing the washed tissue and allowed to equilibrate. Filters were then counted to determine radioactivity bound to the membranes by liquid scintillation counting (2200CA Tri-Carb LSC, Packard Instruments, 50% efficiency or Wallac Trilux 1450 MicroBeta, 40% efficiency, Perkin Elmer).
Data were expressed as disintegrations per minute (DPMs). Within each assay, each point had 2-3 replicates. The replicates for each point were averaged and plotted against the log of the drug concentration. IC50, which is the concentration of the compound that produces 50% inhibition of binding, was determined by least squares non-linear regression. Ki values were calculated using the Cheng-Prussof equation (1973): […]
where N is the concentration of [^3H]nicotine and Kd is the affinity of nicotine (3 nM, determined in a separate experiment).

[1] = target: T2, human muscle nAChR subtype (Homo sapiens, UniProt P02708+P07510+Q07001); assay: 86Rb+ efflux in TE671/RD cells (human muscle nAChR subtype); type: cell-based
T2 construct: endogenous in cells; host or cells: TE671/RD human rhabdomyosarcoma cells
Excerpt: Example 7: Interaction at the Human Muscle nAChR Subtype
Activation of muscle-type nAChRs was established on the human clonal line TE671/RD, which is derived from an embryonal rhabdomyosarcoma (Stratton et al., Carcinogen 10: 899 (1989)). These cells express receptors that have pharmacological (Lukas, J. Pharmacol. Exp. Ther. 251: 175 (1989)), electrophysiological (Oswald et al., Neurosci. Lett. 96: 207 (1989)), and molecular biological profiles (Luther et al., J. Neurosci. 9: 1082 (1989)) similar to the muscle-type nAChR.
TE671/RD cells were maintained in proliferative growth phase according to routine protocols (Bencherif et al., Mol. Cell. Neurosci. 2: 52 (1991) and Bencherif et al., J. Pharmacol. Exp. Ther. 257: 946 (1991)). […]
Nicotinic acetylcholine receptor (nAChR) function was assayed using ^86Rb^+efflux according to the method described by Lukas et al., Anal. Biochem. 175: 212 (1988). […] Scintillation fluid was added and released radioactivity was measured by liquid scintillation counting. […]
When appropriate, dose-response curves of test compound were determined. The maximal activation for individual compounds (Emax) was determined as a percentage of the maximal activation induced by L-nicotine. The compound concentration resulting in half maximal activation (EC50) of specific ion flux was also determined.

[2] = tested on: mice impaired with scopolamine; assay: Morris Water Maze (MWM) task, scopolamine-impaired; type: in vivo; details: 1 mg/kg (5 μmol/kg) p.o., scopolamine 0.75 mg/kg s.c.
Method: In an animal model of spatial memory, the efficacy of Compound A (7,8,9,10-tetrahydro-6H-azepino[4,5-g]quinoxaline) to attenuate water-maze performances of mice impaired with scopolamine (0.75 mg/kg, s.c.) was evaluated. Following a two-day acclimation period to the maze, mice were trained for 4 days to a platform location in the maze. During the training sessions, each animal was given four trials separated by 5 minutes between each trial. The platform location was constant for each animal. Compound A (1, 3 and 10 mg/kg or 5, 15.1 and 50 μmol/kg, p.o.) was administered 25 minutes prior to each of the four training days. Scopolamine was administered 15 minutes prior to each of the four training days. The probe trial (i.e., no platform present) was conducted on day 5 under drug-free (i.e., water instead of Compound A and saline instead of scopolamine) conditions. In the MWM model, Compound A (1, 3 and 10 mg/kg) was orally administered 25 minutes whereas scopolamine was subcutaneously administered 15 minutes prior to each of the four training days. During training days, each animal was given four trials separated by 5 minutes between trials. The probe trial was conducted on day 5 under drug-free (i.e., water instead of Compound A and saline instead of scopolamine) conditions.

T2 sequence (P02708 21-457): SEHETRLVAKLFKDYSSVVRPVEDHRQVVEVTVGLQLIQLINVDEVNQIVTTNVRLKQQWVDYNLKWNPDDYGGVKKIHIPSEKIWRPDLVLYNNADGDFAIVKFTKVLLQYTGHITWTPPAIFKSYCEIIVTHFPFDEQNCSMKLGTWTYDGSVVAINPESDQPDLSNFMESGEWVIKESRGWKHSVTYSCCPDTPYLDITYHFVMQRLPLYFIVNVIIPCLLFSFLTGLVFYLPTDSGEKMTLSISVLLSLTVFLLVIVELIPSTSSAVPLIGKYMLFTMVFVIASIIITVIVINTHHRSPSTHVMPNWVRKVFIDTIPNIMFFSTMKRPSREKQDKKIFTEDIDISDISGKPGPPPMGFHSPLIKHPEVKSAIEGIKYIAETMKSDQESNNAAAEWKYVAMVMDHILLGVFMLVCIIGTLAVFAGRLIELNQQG
T2 sequence (P07510 23-517): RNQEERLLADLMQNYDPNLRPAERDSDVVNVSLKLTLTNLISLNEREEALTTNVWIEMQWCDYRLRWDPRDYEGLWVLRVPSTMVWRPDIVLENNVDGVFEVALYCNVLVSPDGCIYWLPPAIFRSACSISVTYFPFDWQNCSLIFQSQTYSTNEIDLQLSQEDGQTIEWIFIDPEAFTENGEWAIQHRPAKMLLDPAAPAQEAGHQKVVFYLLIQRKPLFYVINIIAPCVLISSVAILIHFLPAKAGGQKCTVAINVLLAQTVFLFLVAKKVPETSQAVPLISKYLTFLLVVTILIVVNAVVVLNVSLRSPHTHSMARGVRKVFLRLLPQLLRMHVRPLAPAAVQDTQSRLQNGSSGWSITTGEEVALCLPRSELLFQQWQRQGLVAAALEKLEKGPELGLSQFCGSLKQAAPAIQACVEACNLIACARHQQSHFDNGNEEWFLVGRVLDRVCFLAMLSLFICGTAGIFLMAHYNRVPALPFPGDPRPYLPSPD
T2 sequence (Q07001 22-517): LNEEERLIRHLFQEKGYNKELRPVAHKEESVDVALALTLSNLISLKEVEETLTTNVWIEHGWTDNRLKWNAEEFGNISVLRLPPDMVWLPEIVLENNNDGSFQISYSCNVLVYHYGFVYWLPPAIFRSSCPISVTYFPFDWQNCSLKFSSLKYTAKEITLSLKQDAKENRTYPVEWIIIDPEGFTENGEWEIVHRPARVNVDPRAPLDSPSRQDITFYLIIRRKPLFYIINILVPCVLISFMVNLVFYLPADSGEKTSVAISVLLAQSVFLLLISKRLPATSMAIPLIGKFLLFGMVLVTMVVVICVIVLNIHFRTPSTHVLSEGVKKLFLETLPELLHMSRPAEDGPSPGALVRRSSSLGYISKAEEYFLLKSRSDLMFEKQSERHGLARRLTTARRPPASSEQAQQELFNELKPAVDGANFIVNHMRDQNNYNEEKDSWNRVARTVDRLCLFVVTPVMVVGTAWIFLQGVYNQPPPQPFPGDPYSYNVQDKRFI
T2 sequence (P11230 24-501 partner): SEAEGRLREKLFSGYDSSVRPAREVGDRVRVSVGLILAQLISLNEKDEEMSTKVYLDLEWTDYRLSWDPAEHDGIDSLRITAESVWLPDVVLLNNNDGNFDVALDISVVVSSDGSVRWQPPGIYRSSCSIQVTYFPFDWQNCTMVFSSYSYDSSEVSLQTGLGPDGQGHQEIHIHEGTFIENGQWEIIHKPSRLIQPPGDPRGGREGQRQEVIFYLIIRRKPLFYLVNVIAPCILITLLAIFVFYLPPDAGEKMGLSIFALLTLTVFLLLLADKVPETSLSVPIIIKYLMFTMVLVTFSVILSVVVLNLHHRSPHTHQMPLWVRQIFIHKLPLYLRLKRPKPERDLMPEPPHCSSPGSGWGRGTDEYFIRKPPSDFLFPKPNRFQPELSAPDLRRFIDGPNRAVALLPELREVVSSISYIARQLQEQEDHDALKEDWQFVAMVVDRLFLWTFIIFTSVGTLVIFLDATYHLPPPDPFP
T1 sequence (P43681 29-627 limits assumed): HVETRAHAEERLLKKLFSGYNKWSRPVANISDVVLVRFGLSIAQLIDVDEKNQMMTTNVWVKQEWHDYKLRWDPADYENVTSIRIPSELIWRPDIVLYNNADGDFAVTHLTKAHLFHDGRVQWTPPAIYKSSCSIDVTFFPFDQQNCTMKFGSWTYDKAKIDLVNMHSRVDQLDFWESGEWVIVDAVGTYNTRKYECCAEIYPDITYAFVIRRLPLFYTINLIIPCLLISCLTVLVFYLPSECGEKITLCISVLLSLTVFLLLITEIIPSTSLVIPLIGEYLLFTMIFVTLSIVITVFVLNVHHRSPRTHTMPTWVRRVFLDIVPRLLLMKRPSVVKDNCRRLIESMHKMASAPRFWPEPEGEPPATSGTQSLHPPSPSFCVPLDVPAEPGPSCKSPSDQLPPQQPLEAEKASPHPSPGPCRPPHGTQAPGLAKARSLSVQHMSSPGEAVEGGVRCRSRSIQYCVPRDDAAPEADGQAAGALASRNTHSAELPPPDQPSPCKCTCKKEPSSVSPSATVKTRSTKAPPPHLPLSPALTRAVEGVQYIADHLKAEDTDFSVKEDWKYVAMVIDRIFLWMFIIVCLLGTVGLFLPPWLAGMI
T1 sequence (P17787 26-502): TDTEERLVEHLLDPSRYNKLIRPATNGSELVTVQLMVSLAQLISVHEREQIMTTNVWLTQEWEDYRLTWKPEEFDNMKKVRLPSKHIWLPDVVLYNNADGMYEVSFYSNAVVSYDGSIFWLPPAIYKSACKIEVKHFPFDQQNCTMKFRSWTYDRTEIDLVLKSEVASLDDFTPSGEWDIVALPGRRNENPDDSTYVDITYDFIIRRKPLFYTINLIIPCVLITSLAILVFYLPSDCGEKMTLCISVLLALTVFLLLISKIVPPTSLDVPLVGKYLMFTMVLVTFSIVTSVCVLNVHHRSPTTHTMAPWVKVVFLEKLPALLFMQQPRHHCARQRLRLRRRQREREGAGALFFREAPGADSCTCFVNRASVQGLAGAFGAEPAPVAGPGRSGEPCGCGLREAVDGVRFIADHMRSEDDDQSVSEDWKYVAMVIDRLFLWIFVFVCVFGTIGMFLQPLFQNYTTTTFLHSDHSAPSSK

`c1cnc2cc3c(cc2n1)CCNCC3` [Compound A, 7,8,9,10-tetrahydro-6H-azepino[4,5-g]quinoxaline] showed a Ki (Human α4β2 nAChR subtype) of 10 nM, an EC50 ([1]; 86Rb+ efflux) of 75 µM and an Emax ([1]; percentage of maximal activation induced by L-nicotine) of 23%. The “effect on scopolamine-induced cognitive deficits, MWM” value [2] was “reverse scopolamine-induced cognitive deficits”.
